In one series the test system is HT22 cell. Conditions: cited from earlier work.
The conditions of series [1]: orally administered; cited from earlier work.
Details of series [2]: method as in earlier work. The settings on record: cited from earlier work.
The conditions of series [3]: mainly mediated by CYP3A4; cited from earlier work.
The next series relates to EphA4. Also noted: method as in PMID 24958880. The settings on record: cited from earlier work.
Series [4] can be described thus: Kinetic profiles of administered and generated stereoisomers in brain, CSF and plasma of rats after oral administration. The format is in vivo, male Sprague-Dawley (SD) rats. The settings on record: for AUC0-180 min, brain / Cmax, brain: rat brain; for AUC(0-t) / Cmax / half-life / Kp / Tmax: male, Sprague-Dawley, po; for half-life: read-out: t 1/2, plasma; for Kp / Tmax: rat; for Tmax: plasma. The source says: Male Sprague-Dawley (SD) rats were provided by the Laboratory Animal Service Center of The Chinese University of Hong Kong, Hong Kong, China. Animals were housed in cages during the study period under standard conditions of temperature, humidity, and light. All animal experiments were approved by the Animal Ethics Committee of The Chinese University of Hong Kong.
One day before the experiment, the male SD rats (160-200 g) were fasted overnight with free access to water. […] The dosage was the same as used in the previous pharmacodynamics studies. […] The rats were exsanguinated by cardiac puncture under anesthesia, followed by collecting their CSF (about 100 μL) through a single puncture in the cisterna magna. Plasma was obtained by centrifugation of blood at 6,000 × g for 8 min at 4°C. After blood collection, the animals were perfused transcardially with normal saline until total blood volume was removed. Then, the whole brain was promptly collected, and the surface water was blotted dry with Kimwipes (Kimberly-Clark™). Blood vessels and meninges were carefully removed with forceps and the brain was weighted. All samples were stored at −20°C until analysis.
Brain homogenate was freshly prepared by homogenizing brain tissues in normal saline (1:2, w/v). Homogenization was conducted in an ice bath using the IKA T10 basic ULTRA-TURRAX Homogenizer for 20–30 s.
The biological samples including brain homogenate, CSF, and plasma (50 μL each) were deproteinized by adding 150 μL of acetonitrile (containing 20 ng/mL IS). After vortex mixing for 1 min, the mixture was centrifuged (20,000 × g) for 10 min at 4°C. After centrifugation, an aliquot (5 μL) of supernatant was subjected to the LC-MS/MS analysis.
The chromatographic separation was achieved on ZORBAX Eclipse Plus C18 column (2.1 × 100 mm, 1.8 μm, Agilent) maintained at 40°C temperature at a flow rate of 0.3 mL/min. A gradient mobile phase consisting of 0.1% formic acid in acetonitrile (A) and 0.1% formic acid in water (B) was eluted as follows: 0–1 min, A, 15–20%; 1–5 min, A, 20–25%; 5–7 min, A, 25–95%; 7–10 min, A held at 95% and returned to the initial condition (acetonitrile-water ratio 15 : 85) for a 3 min equilibration. The temperature of the auto-sampler was kept at 4°C.
All the data were processed using Agilent MassHunter Workstation Software Quantitative Analysis Version B.07.00/Build 7.0.457.0 (Agilent).
Kinetic parameters were calculated using the WinNonlin software (Version 4.0, Pharsight Corp, Mountain View, CA, US) employing a noncompartmental model approach. Epimerization ratio was calculated by AUC(generated stereoisomer)/(AUC(generated stereoisomer) + AUC(administered stereoisomer)) × 100%. The brain-to-plasma partition coefficient (Kp, Brain) was calculated by AUCBrain/AUCPlasma, and the CSF-to-plasma partition coefficient (Kp, CSF) was calculated by AUCCSF/AUCPlasma.
All the data in the study were expressed as mean ± SEM. Statistical analyses were performed using GraphPad Prism 6.0 (GraphPad Software Inc, San Diego, CA, US) using two tailed unpaired t-test for two groups comparison. Statistical significance was set at p value less than 0.05.

For series [5], the system named is rats with Aβ25-35-induced cognitive deficits. Conditions: oral 20 or 40 mg/kg for 3 weeks; cited from earlier work.
In the next series the test system is APP/PS1 transgenic mice. Also noted: method as in PMID 24958880. Conditions: oral 50 mg/kg/day for 3-4 weeks; cited from earlier work.
In the next series the test system is P-gp efflux transporter. Conditions: cited from earlier work.
Where [6] appears, read: administered stereoisomer, 20 mg/kg p.o., rat CSF.
Setting [7] is: administered stereoisomer, 20 mg/kg p.o.
[8] abbreviates: generated stereoisomer after 20 mg/kg p.o. of the other stereoisomer.
Where [9] appears, read: administered stereoisomer, 20 mg/kg p.o. of the same compound, rat plasma, mean ± SEM, read-out: AUC0-180 min, plasma (converted).
Where [10] appears, read: administered stereoisomer, 20 mg/kg p.o., rat CSF, read-out: AUC0-180 min, CSF (converted).
Setting [11] is: administered stereoisomer, 20 mg/kg p.o., rat plasma.
Where [12] appears, read: CSF (relative to plasma), administered stereoisomer, 20 mg/kg p.o., AUCCSF/AUCPlasma, read-out: Kp,CSF (CSF-to-plasma partition coefficient).
Setting [13] is: brain (relative to plasma), administered stereoisomer, 20 mg/kg p.o., AUCBrain/AUCPlasma, read-out: Kp,Brain (brain-to-plasma partition coefficient).
Setting [14] is: 20 mg/kg, administered stereoisomer, 20 mg/kg p.o., rat plasma.

Where “and” joins values, the source holds several entries; their conditions need not be identical. Equal entries are not always repeated. Where two headings read alike, the source gives them in different places.

The term pKa denotes the pH at which an ionisable group is half protonated. As usually defined, the Cmax is the highest concentration seen after dosing. By Kp is commonly meant tissue or fluid exposure divided by exposure in the circulation. The Tmax is the time at which the peak concentration occurs. In the case of `CC[C@H]1CN2CC[C@@]3(C(=O)Nc4ccccc43)[C@@H]2C[C@@H]1/C(=C\OC)C(=O)OC` [IRN, Isorhynchophylline], the “Neuroprotective activity against glutamate-induced HT22 cell injury” value in the series with HT22 cell was “significant neuroprotective activity”. For the same molecule, in series [1], the Bioavailability was 3.3 ± 0.8%. The pKa in [2] is on record as 5.20. The “Metabolism in rat liver microsomes” value in [3] was “much more favorable to be metabolized than RN”. Moreover, the “Inhibition of EphA4” value with EphA4 is recorded as “not”. For the same molecule, in series [4] (setting [6]), the “Cmax, CSF” value is listed as 2.14 ± 0.34 ng/mL. The “AUC0-180 min, brain” value is on record as 627.37 ± 43.31 ng·min/g in series [4] (setting [7]) and 140.76 ± 1.50 ng·min/g in series [4] (setting [8]). Further, in series [4] (setting [7]), the “Cmax, brain” value is recorded as 7.35 ± 0.74 ng/g. For the same molecule, in series [4] (after oral administration of IRN 20 mg/kg, rats), the “Administered IRN metabolically converted to RN” value is “at least 47%”. The AUC(0-t) in series [4] (setting [9]) was 41.4 ng·h/mL; in [4] (setting [10]), 3.4 ng·h/mL. In addition, in series [4] (setting [11]), the peak level (Cmax) was 31.3 ± 1.59 ng/mL. In [4] (setting [11]), the half-life was found to be 1.07 ± 0.0532 h. Besides, the values for the Kp in series [4] (setting [12]) and in [4] (setting [13]) were 0.0821 ± 0.005 and 0.253 ± 0.0187, respectively. Further, the Tmax in series [4] (setting [14]) was at most 0.5 h. For the same molecule, the “Cognitive deficits induced by Aβ25-35” value in series [5] is reported as “ameliorated cognitive deficits”.
As for `CC[C@H]1CN2CC[C@]3(C(=O)Nc4ccccc43)[C@@H]2C[C@@H]1/C(=C\OC)C(=O)OC` [RN, rhynchophylline], the “Neuroprotective activity against glutamate-induced HT22 cell injury” value in the series with HT22 cell is on record as “weak effect”. Moreover, the Bioavailability in series [1] was 25.9 ± 8.7%. In addition, the “Long-term potentiation in the hippocampus” value with APP/PS1 transgenic mice is reported as “restored the impaired long-term potentiation”. Further, the pKa in series [2] is reported as 6.32. Also, the “Inhibition of EphA4” value with EphA4 is recorded as “potent inhibitor”. Besides, the “Membrane permeability, effect of P-gp efflux” value in the series with P-gp efflux transporter was “affected by P-gp efflux transporter”. Besides, the “Cmax, CSF” value in series [4] (setting [6]) was 7.39 ± 0.17^∗∗∗ ng/mL. Besides, the “Cmax, brain” value in series [4] (setting [7]) was 16.96 ± 1.92^∗∗ ng/g. Also, the “AUC0-180 min, brain” value was 1587.03 ± 127.82 ng·min/g and 1587.03 ± 127.82^∗∗ ng·min/g in [4] (administered stereoisomer, 20 mg/kg p.o., 20 mg/kg); 296.63 ± 9.49^∗∗ ng·min/g in series [4] (setting [8]). Moreover, the AUC(0-t) was 273 ng·h/mL in series [4] (setting [9]) and 12.4 ng·h/mL in series [4] (setting [10]). In series [4] (setting [11]), this molecule showed a Cmax of 191 ± 6.34 ng/mL. The half-life in series [4] (setting [11]) was 2.16 ± 0.155 h. In addition, the values for the Kp in [4] (setting [12]) and in series [4] (setting [13]) were 0.0453 ± 0.0002 and 0.0967 ± 0.0063, respectively. The Tmax in series [4] (setting [14]) is at most 0.5 h.

The values above are taken from paper PMC6377964 (Evidence-based Complementary and Alternative Medicine : eCAM, 2019).
